Values belong to the molecule of their own block, whether it stands above or below them.
Key:
[1] = biological target: T1, Mineralocorticoid receptor (Rattus norvegicus, UniProt P22199); experiment: Displacement of [3H]-Aldosterone from MR in rat renal soluble fraction measured after 18 hrs in presence of glucocorticoid receptor antagonist RU-486 by liquid scintillation counting method
T1 sequence (P22199 whole entry): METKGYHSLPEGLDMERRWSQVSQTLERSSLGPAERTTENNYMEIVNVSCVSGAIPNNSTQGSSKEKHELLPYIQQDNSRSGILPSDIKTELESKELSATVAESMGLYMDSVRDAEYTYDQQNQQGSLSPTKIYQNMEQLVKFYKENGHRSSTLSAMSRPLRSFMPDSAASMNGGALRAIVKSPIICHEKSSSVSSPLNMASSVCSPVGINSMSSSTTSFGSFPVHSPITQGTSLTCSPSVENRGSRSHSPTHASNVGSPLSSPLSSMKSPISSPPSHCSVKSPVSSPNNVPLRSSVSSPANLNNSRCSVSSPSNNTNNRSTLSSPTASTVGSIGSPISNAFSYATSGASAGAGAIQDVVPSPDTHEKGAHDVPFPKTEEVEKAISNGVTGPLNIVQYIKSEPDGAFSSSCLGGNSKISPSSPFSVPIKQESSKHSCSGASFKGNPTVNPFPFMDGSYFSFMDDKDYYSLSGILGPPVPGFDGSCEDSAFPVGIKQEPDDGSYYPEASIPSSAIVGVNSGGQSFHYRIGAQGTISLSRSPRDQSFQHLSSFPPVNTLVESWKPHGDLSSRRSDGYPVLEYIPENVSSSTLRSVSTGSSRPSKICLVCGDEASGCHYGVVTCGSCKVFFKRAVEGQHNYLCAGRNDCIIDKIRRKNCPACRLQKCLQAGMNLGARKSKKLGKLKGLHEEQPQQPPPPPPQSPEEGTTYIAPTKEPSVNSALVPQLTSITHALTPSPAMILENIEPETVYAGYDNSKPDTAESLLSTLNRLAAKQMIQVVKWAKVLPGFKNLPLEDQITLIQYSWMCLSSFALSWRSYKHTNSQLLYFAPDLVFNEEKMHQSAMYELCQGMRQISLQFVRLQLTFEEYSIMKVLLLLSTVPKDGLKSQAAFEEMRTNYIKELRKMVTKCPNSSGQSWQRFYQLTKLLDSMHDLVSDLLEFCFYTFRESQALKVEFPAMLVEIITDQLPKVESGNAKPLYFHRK

[2] = biological target: T2, Mineralocorticoid receptor (Homo sapiens, UniProt P08235); experiment: Displacement of [3H]-Aldosterone from MR overexpressed in human 293 cells measured after overnight incubation by TopCount method; type: cell-based
T2 sequence (P08235 whole entry): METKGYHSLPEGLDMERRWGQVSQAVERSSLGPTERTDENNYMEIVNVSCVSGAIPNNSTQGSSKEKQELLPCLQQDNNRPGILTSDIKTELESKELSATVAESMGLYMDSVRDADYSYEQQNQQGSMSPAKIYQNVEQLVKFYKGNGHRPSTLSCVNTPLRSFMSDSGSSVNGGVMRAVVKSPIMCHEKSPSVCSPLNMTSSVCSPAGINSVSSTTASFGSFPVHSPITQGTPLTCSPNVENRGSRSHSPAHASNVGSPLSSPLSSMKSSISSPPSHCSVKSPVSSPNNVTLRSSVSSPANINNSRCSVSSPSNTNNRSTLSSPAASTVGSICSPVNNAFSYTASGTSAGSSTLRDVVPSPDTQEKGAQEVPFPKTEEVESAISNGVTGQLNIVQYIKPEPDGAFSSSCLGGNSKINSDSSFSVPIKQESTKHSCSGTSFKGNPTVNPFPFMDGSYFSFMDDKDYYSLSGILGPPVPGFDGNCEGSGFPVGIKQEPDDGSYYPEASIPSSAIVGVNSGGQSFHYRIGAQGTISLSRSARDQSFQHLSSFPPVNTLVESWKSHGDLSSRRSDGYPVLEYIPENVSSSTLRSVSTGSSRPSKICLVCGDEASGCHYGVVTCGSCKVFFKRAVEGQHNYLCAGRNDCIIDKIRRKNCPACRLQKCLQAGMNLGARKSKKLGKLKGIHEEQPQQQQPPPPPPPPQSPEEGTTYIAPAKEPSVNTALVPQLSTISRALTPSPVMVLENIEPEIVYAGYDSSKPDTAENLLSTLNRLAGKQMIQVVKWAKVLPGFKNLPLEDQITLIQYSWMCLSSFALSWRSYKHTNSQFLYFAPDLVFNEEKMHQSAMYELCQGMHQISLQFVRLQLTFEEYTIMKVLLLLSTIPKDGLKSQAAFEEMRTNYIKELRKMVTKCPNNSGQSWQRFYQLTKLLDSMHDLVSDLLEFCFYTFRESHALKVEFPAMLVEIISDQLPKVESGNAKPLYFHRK

Glucocorticoid receptor = biological target: T3, Glucocorticoid receptor (Homo sapiens, UniProt P04150); experiment: Displacement of [3H]-dexamethasone from GR overexpressed in human 293 cells measured after overnight incubation by TopCount method; type: cell-based
T3 sequence (P04150 whole entry): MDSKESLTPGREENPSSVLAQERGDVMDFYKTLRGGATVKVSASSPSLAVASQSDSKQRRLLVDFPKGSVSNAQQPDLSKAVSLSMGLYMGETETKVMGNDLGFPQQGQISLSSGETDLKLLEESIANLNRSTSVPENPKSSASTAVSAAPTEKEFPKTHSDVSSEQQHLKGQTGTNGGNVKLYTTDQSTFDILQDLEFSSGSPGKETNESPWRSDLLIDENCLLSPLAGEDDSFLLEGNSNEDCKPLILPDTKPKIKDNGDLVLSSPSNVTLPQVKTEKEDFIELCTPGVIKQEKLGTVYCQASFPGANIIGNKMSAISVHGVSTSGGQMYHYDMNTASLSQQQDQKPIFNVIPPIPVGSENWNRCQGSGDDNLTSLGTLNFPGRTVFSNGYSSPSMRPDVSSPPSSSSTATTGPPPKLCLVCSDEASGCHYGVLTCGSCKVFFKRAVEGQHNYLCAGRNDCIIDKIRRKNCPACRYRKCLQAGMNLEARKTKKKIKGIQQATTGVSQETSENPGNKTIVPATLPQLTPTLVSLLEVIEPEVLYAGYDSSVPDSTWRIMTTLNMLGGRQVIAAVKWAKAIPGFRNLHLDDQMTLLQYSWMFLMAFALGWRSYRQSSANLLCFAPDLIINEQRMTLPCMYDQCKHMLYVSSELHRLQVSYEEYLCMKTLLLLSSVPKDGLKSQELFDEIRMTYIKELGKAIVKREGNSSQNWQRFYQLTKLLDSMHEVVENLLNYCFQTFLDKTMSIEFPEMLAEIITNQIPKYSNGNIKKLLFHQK

[3] = biological target: T2, Mineralocorticoid receptor; experiment: Antagonist activity at Gal4-fused MR LBD (unknown origin) expressed in human Huh7 cells assessed as inhibition of aldosterone-induced transcriptional activity after 3 hrs by luciferase reporter gene assay; type: cell-based
[4] = biological target: T4, Mineralocorticoid receptor (Homo sapiens) (UniProt P08235); experiment: Antagonist activity at full-length human MR expressed in CHO-K1 cells assessed as inhibition of aldosterone-induced response measured after overnight incubation by luminesence analysis; type: cell-based
T4 sequence (whole entry): T2 sequence (P08235 whole entry)

[5] = Clearance in rat; type: ADME; settings: in vivo
[6] = Half life in rat; type: ADME; settings: in vivo
[7] = Half life in human liver microsomes; type: ADME, microsome
[8] = Half life in human hepatocytes; type: ADME, cell-based, Hepatocyte

IC50 [1]: 61 nM
SMILES: COc1cc(NC(=O)c2ccc(-c3ccccc3OC(F)(F)F)c(CCN3CC(C)OC(C)C3)c2)ccc1S(N)(=O)=O (stereo unspecified)

Ki [2]: ≤ 500 nM | Ki (Glucocorticoid receptor): ≤ 500 nM
SMILES: CC(c1ccccc1)(c1c[nH]c2c(NS(C)(=O)=O)cccc12)C1CC1 (stereo unspecified)

Inhibitory potency [4]: 4 nM | clearance [5]: 24 mL/min/kg | half-life [6]: 318 min | half-life [7]: 72 min | half-life [8]: > 90 min
SMILES: CCC(O)C(CC)(c1ccc(C(F)(F)F)cc1)n1ncc2c(NS(C)(=O)=O)cccc21 (stereo unspecified)

IC50 [1]: 31 nM
SMILES: COc1cc(NC(=O)c2ccc(-c3ccccc3C(F)(F)F)c(COC(C)=O)c2)ccc1S(N)(=O)=O

Further lines, the molecule ahead of its results:

SMILES: C[C@@H]1CN(c2ccc3c(n2)NC(=O)CO3)CCO1
IC50 [3]: 3050 nM

SMILES: C[C@@H]1CN(c2ccc3c(c2)NC(=O)CO3)[C@H](c2ccccc2F)CO1
IC50 [3]: 33.4 nM

SMILES: CCC(c1ccc(C(F)(F)F)cc1)(C(O)C(F)F)n1ncc2c(NS(C)(=O)=O)cccc21 (stereo unspecified)
Inhibitory potency [4]: 11 nM | clearance [5]: 3.8 mL/min/kg | half-life [6]: 594 min | half-life [7]: 62 min | half-life [8]: > 90 min

From ChEMBL document CHEMBL4007392, “Modulating Mineralocorticoid Receptor with Non-steroidal Antagonists. New Opportunities for the Development of Potent and Selective Ligands without Off-Target Side Effects” (J Med Chem, 2017)
